Results from ChEMBL document CHEMBL4706713, “Speeding drug discovery targeting RNAs: An iterative "RNA selection-compounds screening cycle" for exploring RNA-small molecule pairs” (Bioorg Med Chem, 2021).
Values belong to the compound of their own block, whether it stands above or below them. Calls of active or inactive are those of the source. The calls are words filed in the database; no cut-off is given here.

Tests used:
[1] = Binding affinity to 5'-Biotinylated pre-let-7f-2-loop-mt RNA (unknown origin) at 25 uM by SPR analysis
[2] = Binding affinity to 5'-Biotinylated pre-let-7f-2-loop-mt RNA (unknown origin) by SPR analysis
[3] = Binding affinity to R1-RNA internal loop mutant3 (unknown origin) by SPR analysis
[4] = Binding affinity to R2-RNA (unknown origin) by SPR analysis
[5] = Binding affinity to R1-RNA hairpin loop (unknown origin) by SPR analysis
[6] = Binding affinity to R1-RNA internal loop mutant4 (unknown origin) by SPR analysis
[7] = Binding affinity to R1-RNA internal loop mutant1 (unknown origin) by SPR analysis
[8] = Binding affinity to R1-RNA internal loop mutant2 (unknown origin) by SPR analysis
[9] = Binding affinity to R1-RNA internal loop (unknown origin) by SPR analysis
[10] = Binding affinity to 5'-Biotinylated pre-let-7f-2 RNA (unknown origin) by SPR analysis
[11] = Binding affinity to R1-RNA (unknown origin) by SPR analysis

Compound: CC(C)NC(=O)c1ccncc1NC(=O)Nc1nn(C)c2nc(Cl)ncc12
Activity [1]: Active
Kd [2]: 17.8 µM

Compound: Cn1nc(NC(=O)Nc2cnccc2C(=O)N[C@@H](CO)CCCCN)c2cnc(N3CC(F)(F)C(F)(F)C3)nc21
Activity [1]: Active
Activity [3]: inactive
Activity [4]: inactive
Activity [5]: inactive
Activity [6]: inactive
Activity [2]: Active
Activity [7]: inactive
Activity [8]: inactive
Activity [9]: Active
Activity [10]: inactive
Activity [11]: Active

Compound: CC(C)NC(=O)c1ccncc1NC(=O)Nc1nn(C)c2nc(N3CCC(CN(C)C)C3)ncc12 (configuration not stated)
Activity [1]: Active

Second part, the compound after the results:

Activity [2]: inactive
Compound: COCC1CCN(c2ncc3c(NC(=O)Nc4cnccc4C(=O)NC(C)C)nn(C)c3n2)C1 (configuration not stated)

Activity [2]: inactive
Compound: CC(C)NC(=O)c1ccncc1NC(=O)Nc1nn(C)c2nc(N3CCCC3)ncc12

Activity [1]: Active
Compound: CC(C)NC(=O)c1ccncc1NC(=O)Nc1nn(C)c2nc(N3CCC(N(C)C)C3)ncc12 (configuration not stated)
